{
  "source": "patent US20190045784A1",
  "about": "(priority 2016, published 2019)",
  "format_in_all_cases": "cell-based",
  "settings_in_all_cases": "7 days after inoculation",
  "key": {"Phytophthora infestans": {"test_system": "Phytophthora infestans"}, "Alternaria solani": {"test_system": "Alternaria solani", "test": "Activity against early blight caused by Alternaria solani (Alteso), microtiter test"}, "Botrytis cinerea": {"test_system": "Botrytis cinerea", "test": "Activity against the grey mold Botrytis cinerea in the microtiter plate test (Botrci)"}, "Septoria tritici": {"test_system": "Septoria tritici", "test": "Activity against leaf blotch on wheat caused by Septoria tritici (Septtr), microtiter test"}},
  "note": "Like-named read-outs stand apart in the source and are kept apart here.",
  "data": [
    {"smiles": "Cn1cc(C(=O)Nc2ccccc2-c2cc(F)c(F)c(F)c2)c(C(F)F)n1", "note": "[Fluxapyroxad, fluxapyroxad]", "values": [
      {"measurement": "Observed efficacy", "setting": "Phytophthora infestans; 0.016 ppm", "result": 2, "unit": "%"},
      {"measurement": "Observed efficacy", "setting": "Phytophthora infestans; 0.063 ppm", "result": 18, "unit": "%"},
      {"measurement": "Observed efficacy", "setting": "Alternaria solani; 0.00025 ppm", "result": 7, "unit": "%"},
      {"measurement": "Observed efficacy", "setting": "Alternaria solani; 0.004 ppm", "result": 31, "unit": "%"},
      {"measurement": "Observed efficacy", "setting": "Alternaria solani; 0.016 ppm", "result": 69, "unit": "%"},
      {"measurement": "Observed efficacy", "setting": "Botrytis cinerea; 0.016 ppm", "result": 0, "unit": "%"},
      {"measurement": "Observed efficacy", "setting": "Septoria tritici; 0.000063 ppm", "result": 1, "unit": "%"},
      {"measurement": "Observed efficacy", "setting": "Septoria tritici; 0.001 ppm", "result": 7, "unit": "%"},
      {"measurement": "Observed efficacy", "setting": "Septoria tritici; 0.004 ppm", "result": 9, "unit": "%"},
      {"measurement": "Observed efficacy", "setting": "Septoria tritici; 0.016 ppm", "result": 17, "unit": "%"}
    ]},
    {"smiles": "Cn1c(=O)c2sc3c(=O)n(C)c(=O)c3sc2c1=O", "note": "[No. I-2, 2,6-dimethyl-1H,5H-[1,4]dithiino[2,3-c:5,6-c′]dipyrrole-1,3,5,7(2H,6H)-tetraone]", "values": [
      {"measurement": "Observed efficacy", "setting": "Phytophthora infestans; 0.25 ppm", "result": 0, "unit": "%"},
      {"measurement": "Observed efficacy", "setting": "Phytophthora infestans; 1 ppm", "result": 28, "unit": "%"},
      {"measurement": "Observed efficacy", "setting": "Alternaria solani; 0.25 ppm", "result": 14, "unit": "%"},
      {"measurement": "Observed efficacy", "setting": "Septoria tritici; 0.063 ppm", "result": 35, "unit": "%"}
    ]},
    {"smiles": "Nc1nc(OCc2ccc(F)cc2)ncc1F", "note": "[No. I-4, 5-fluoro-2-(4-fluorophenylmethoxy)pyrimidin-4 amine]", "values": [
      {"measurement": "Observed efficacy", "setting": "Alternaria solani; 1 ppm", "result": 0, "unit": "%"}
    ]},
    {"smiles": "Cc1ccc(COc2ncc(F)c(N)n2)cc1", "note": "[No. I-5, 5-fluoro-2-(p-tolylmethoxy)pyrimidin-4-amine]", "values": [
      {"measurement": "Observed efficacy", "setting": "Phytophthora infestans; 16 ppm", "result": 14, "unit": "%"},
      {"measurement": "Observed efficacy", "setting": "Botrytis cinerea; 16 ppm", "result": 24, "unit": "%"}
    ]}
  ]
}
